Measurements: patent publication US6482833B2, “Immunotherapeutic anti-cancer pharmaceutical compositions” (North Shore - Long Island Jewish Research Institute, priority 1997, dated 2002)
Entries after “also recorded” stand apart in the source; their conditions may differ.

Assays:
[1] = Carrageenan foot pad edema model of inflammation; assay type: in vivo, mice
Protocol: To determine an inflammatory […] foot pad edema model with carrageenan, female C3H/HeN mice (20-25g) were obtained from Jackson Laboratories, and 5 mice were used in each group to obtain statistically significant results. […] Louis, Mo.) was made in PBS at 37° C. 3 days or more before using. […] Louis, Mo.) was made freshly each time. Carrageenan (50 μl, 0.2%) was injected into the plantar surface of the left hind paw to induce paw edema in control group. and spermine at the doses indicated was coadministered in 50 μl PBS in three spermine groups. The right hind paw was injected with the same volume of PBS as control for every groups. The thickness of the two paws was measured double-blindly using a caliper 3 hours and 28 hours later. The difference in the thickness between the two paws was taken as inflammatory index.

B16 F1 tumor cells = experiment: In vivo mouse tumor model (B16 F1 cells), tumor size and formation; design: species or system mice; settings: for solid tumor masses: mice, administered parenterally
[2] = test system: TNFα release from LPS-stimulated macrophage cell cultures; experiment: TNF release from LPS-activated monocyte/macrophage cultures counter-regulated by spermine (ELISA); assay type: cell-based, human; settings: for override of spermine inhibition of TNFα release: LPS-stimulated cells with spermine, TNFα in culture supernatants, dose-response
Protocol: Macrophage activation was measured by release of TNF into macrophage cell culture supernatants.
Monocytes were isolated and cultured by isolating fresh human PBMCs from EDTA-blood from healthy donors (Long Island Blood Service, Melville, N.Y.) by Ficoll-Paque (Pharmacia, Uppsala, Sweden) gradient. Cells were suspended in RPMI 1640 medium (Gibco BRL, Grand Island, N.Y.) containing 10% heat-inactivated human serum, 0.1% L-glutamine, and 0.01% gentamycin), and cultured at 37° C. in a humidified atmosphere of 5% CO2 and 95% air. PBMCs were plated in 96-well plates at 5×10^5 cells per well for cytokine assay and uptake study or in 24-well plates at 5×10^6 cells per well for RNA study. Nonadherent cells were removed after overnight culture, and adherent cells (monocytes) were then used for experiment.
(§1) Monocytes were activated to release cytokines by treating cells with 100 ng/ml sonicated LPS (Sigma, St Louis, Mo.) and 25 u/ml recombinant human interferon-γ (Boehringer Mannheim, Mannheim, Germany) except 1 μg/ml LPS alone for IL-1β. For treating cells with spermine, cells were pretreated with spermine (Sigma, St Louis, Mo.) one hour before LPS/IFG stimulation. Spermine was made freshly each time in sterile-filtered deionized water at 51.2 mM or 35 mM, and then diluted in complete RPMI 1640 medium followed by adding to individual wells to yield the final concentration indicated. Control wells received an equal volume of medium only were used in all experiment.

tumor cells = experiment: Direct cytotoxicity of the immunomodulatory compounds; assay type: cell-based; settings: effective immunostimulatory concentrations
G361 cells = experiment: Macrophage-mediated cytotoxicity of LPS-activated monocytes to tumor cells
Protocol: Tumor cell cultures were split tumor cells 1:3 in FBS-containing RPMI 1640 medium and incubate overnight 20 μCi/ml ^3H-thymidine was added to tumor cell cultures to label the cells overnight. The cells were washed to remove unabsorbed label. The cells were trypsinized and suspended in 10 ml DPBS, washed and counted. Flasks of 7.5×10^5, 7.5/2×10^5, 7.5/4×10^5, 7.5/8×10^5, 7.5/16×10^5 and 7.7/32×10^5 cells/ml in RPMI 1640 medium were prepared. The tumor cells (200 μl) were added to wells containing 3×10^5 monocytes or control wells to make the E/T ratio 2:1, 4:1, 8:1, 16:1, 32:1 and 64:1. The cell mixture was incubated for 2 hours and macrophage-mediated cytotoxicity to tumor cells was determined.
PBMCs were isolated in a Ficoll-Paque (Pharmacia) gradient and plated. After 2 hours of incubation, the nonadherent cells were removed by rinsing with RPMI 1640 medium without serum 3×, then add 25 ml human serum-containing RPMI 1640 medium with 2 ng/ml human MCSF to each 75 flask and incubate the cells overnight. The cells were labeled with 20 uCi/ml ^3H-thymidine overnight and washed 2× with DPBS without Ca & Mg. The monocytes were isolated and counted, then diluted to 1.5×10^6 cells/ml in RPMI 1640. Tumor cells were diluted to 7.5×10^5, 7.5/2×10^5, 7.5/4×10^5, 7.5/8×10^5, 7.5/16×10^5 and 7.7/32×10^5 cells/ml in RPMI 1640 medium. About 200 μl tumor cells were added at different concentration to the wells containing 3×10^5 monocytes or control wells to make the E/T ratio 2:1, 4:1, 8:1, 16:1, 32:1 and 64:1, then incubated for 2 hrs.
About 400 μg/μl LPS was sonicated for 10 min, then 19.2 μl 400 μg/ml LPS was added to 10 ml RPMI 1640 medium.

monocytes = settings: spermine at the concentrations indicated
Protocol: as §1

TNF = TNF levels in tumor biopsy samples of solid tumor-bearing mice; assay type: in vivo; settings: 1 mg/kg ip; tumor biopsy samples in four mice
[3] = 50 μM spermine, macrophages activated by endotoxin (LPS)

Q: For `CC1(C)CC(NCCCCCCNC2CC(C)(C)NC(C)(C)C2)CC(C)(C)N1` [compound 38, N,N′-bis(2,2,6,6-tetramethyl-4-piperidyl)hexamethylenediamine], which “paw edema, override of inflammatory inhibition by spermine” value ([1]; in vivo mouse paw edema model, dose response) is on record?
A: overrode the inflammatory inhibition by spermine

Q: What about the “paw thickness, override of spermine effect” value ([1]; mouse foot pad carrageenan model, clinical concentrations) of the same compound?
A: overrides the spermine effect

Q: What about the tumor formation (B16 F1 tumor cells; mice inoculated with equal amounts of tumor cells, three doses at two concentrations) of the same compound?
A: delayed tumor formation

Q: What about the solid tumor masses (B16 F1 tumor cells) of the same compound?
A: shrink solid tumor masses

Q: And the “override of spermine inhibition of TNFα release” value [2]?
A: overcome spermine inhibition of TNFα release; also recorded: effectively overrode spermine-induced suppression of TNF secretion

Q: And the direct cytotoxicity (tumor cells)?
A: not cytotoxic

Q: For `C(CCC1CCNCC1)CC1CCNCC1` [compound 214140], which “override of spermine inhibition of TNFα release” value [2] is on record?
A: override the inhibitory effect of spermine

Q: For `NCCCCC(CN)CCCN` (stereo not shown) [compound 94], which direct cytotoxicity (tumor cells) is on record?
A: not cytotoxic

Q: What does the source list for `NCCCNCCCCNCCCN` [spermine]?
A: acute footpad inflammation induced by carageenan ([1]; local administration in mice): protected mice against the development of acute footpad inflammation; percent cytotoxicity, LPS alone versus LPS with spermine (G361 cells; 100 ng/ml LPS, 50 mM spermine, several ratios): reduces LPS-induced cytotoxicity; cellular cytotoxicity of activated monocytes against G361 cells (G361 cells; 100 ng/ml LPS, 50-100 μM spermine): significantly inhibited; macrophage-mediated tumor cell killing (G361 cells; [3]): effectively suppressed macrophage-mediated tumor cell killing; cell viability (LDH assay) (monocytes): did not affect cell viability significantly; suppression of TNF secretion [2, 3]: effectively suppressed TNF secretion; inhibition of cytokine synthesis ([2]; serum-free conditions and in the presence of the polyamine oxidase inhibitor aminoguanidine): effectively inhibit cytokine synthesis

Q: Which “tumor size, time-response” value (B16 F1 tumor cells; 2 mg/kg) does the source give for `NCCCN1CCN(CCCN)CC1` [compound 91] here?
A: shrink tumor size

Q: And the “growth of established tumors” value (B16 F1 tumor cells; 2 mg/kg administered seven days after tumor inoculation)?
A: inhibited the growth of established tumors

Q: What about the solid tumor masses (B16 F1 tumor cells) of the same compound?
A: shrink solid tumor masses

Q: What about the “tumor size, time response and dose-response” value (B16 F1 tumor cells; two doses i.p., 0.5 mg/kg and 2 mg/kg in sterile PBS) of the same compound?
A: shrink tumor size

Q: What about the “TNF levels in tumors” value (TNF) of the same compound?
A: significantly increase TNF levels in tumors

Q: And the “override of spermine inhibition of TNFα release” value [2]?
A: effectively overrode spermine-induced suppression of TNF secretion

Q: And the direct cytotoxicity (tumor cells)?
A: not cytotoxic
